The record followed here is US8889676B2, “3-ureidoisoquinolin-8-yl derivatives” (Actelion Pharmaceuticals Ltd., priority 2011, dated 2014).

The structures appear in SMILES notation. ≈ marks a conversion by molar mass, not a printed value.

The assay concerns S. pneumoniae ATCC 49619. The assay is described as follows: Minimal inhibitory concentration (MIC) by broth microdilution (CLSI M7-A7). The format is cell-based, Streptococcus pneumoniae. Conditions: Streptococcus pneumoniae, ATCC49619; cation-adjusted Mueller Hinton Broth supplemented with 3% (v/v) lysed horse blood; microdilution method. As for the experimental part:
Minimal inhibitory concentrations (MICs; mg/l) were determined in cation-adjusted MuellerHinton Broth (supplemented with 3% (v/v) lysed horse blood for testing Streptococcus pneumoniae) by a microdilution method following the description given in “Methods for Dilution Antimicrobial Susceptibility Tests for Bacteria that Grow Aerobically”, Approved standard, 7th ed., a Clinical and Laboratory Standards Institute (CLSI) Document M7-A7, Wayne, Pa., USA, 2006.
On the technique in general: In broth dilution the organism is exposed to a series of concentrations in liquid medium.
In the case of `CCNC(=O)Nc1cc2cccc(CNC(=O)OCc3cn[nH]c3)c2cn1.Cl` [Example 39, [3-(3-ethyl-ureido)-isoquinolin-8-ylmethyl]-carbamic acid 1H-pyrazol-4-ylmethyl ester hydrochloride], the MIC (commonly the smallest concentration in the dilution series that meets the test's criterion for growth inhibition) came to 2 µg/mL.
The value for `C#CCCOC(=O)NCc1cccc2cc(NC(=O)NCC)ncc12.Cl` [Example 40, [3-(3-ethyl-ureido)-isoquinolin-8-ylmethyl]-carbamic acid but-3-ynyl ester hydrochloride] was 4 µg/mL; that for `C#CCOC(=O)NCc1ccc(-c2ccncc2)c2cc(NC(=O)NCC)ncc12` [Example 41, [3-(3-ethyl-ureido)-5-pyridin-4-yl-isoquinolin-8-ylmethyl]-carbamic acid prop-2-ynyl ester] was 0.25 µg/mL (≈ 0.62 µM).
Take `CCNC(=O)Nc1cc2c(-c3ccncc3)ccc(CNC(=O)OCc3cccnc3)c2cn1` [Example 42, [3-(3-ethyl-ureido)-5-pyridin-4-yl-isoquinolin-8-ylmethyl]-carbamic acid pyridin-3-ylmethyl ester]: the MIC came out at 0.5 µg/mL (≈ 1.1 µM).
The value for `CCNC(=O)NCc1cccc2cc(NC(=O)NCC)ncc12` [Example 43, 1-ethyl-3-{8-[(3-ethyl-ureido)-methyl]isoquinolin-3-yl}-urea] was 4 µg/mL (≈ 12.7 µM); that for `C#CCOC(=O)N(C)Cc1cccc2cc(NC(=O)NCC)ncc12` [Example 44, [3-(3-ethyl-ureido)-isoquinolin-8-ylmethyl]-methyl-carbamic acid prop-2-ynyl ester] was 8 µg/mL (≈ 23.5 µM); that for `CCNC(=O)Nc1cc2c(-c3ccncc3)ccc(CNC(=O)CC(=O)O)c2cn1` [Example 45, N-[3-(3-ethyl-ureido)-5-pyridin-4-yl-isoquinolin-8-ylmethyl]-malonamic acid] was 8 µg/mL (≈ 19.6 µM).
The value for `CCNC(=O)Nc1cc2c(-c3ccncc3)ccc(CNC(=O)CCC(=O)OC(C)(C)C)c2cn1` [Example 46, N-[3-(3-ethyl-ureido)-5-pyridin-4-yl-isoquinolin-8-ylmethyl]-succinamic acid tert-butyl ester] was 2 µg/mL (≈ 4.19 µM).
The value for `CCNC(=O)Nc1cc2c(-c3ccncc3)ccc(CNC(=O)CNC(=O)OC(C)(C)C)c2cn1` [Example 47, ({[3-(3-ethyl-ureido)-5-pyridin-4-yl-isoquinolin-8-ylmethyl]-carbamoyl}-methyl)-carbamic acid tert-butyl ester] was 1 µg/mL (≈ 2.09 µM).
Take `CCNC(=O)Nc1cc2c(-c3ccncc3)ccc(CNC(=O)CN(C)C(=O)OC(C)(C)C)c2cn1` [Example 48, ({[3-(3-ethyl-ureido)-5-pyridin-4-yl-isoquinolin-8-ylmethyl]-carbamoyl}-methyl)-methyl-carbamic acid tert-butyl ester]: the MIC was found to be 2 µg/mL (≈ 4.06 µM).
The value for `CCNC(=O)Nc1cc2c(-c3ccncc3)ccc(CNC(=O)CCNC(=O)OC(C)(C)C)c2cn1` [Example 49, (2-{[3-(3-ethyl-ureido)-5-pyridin-4-yl-isoquinolin-8-ylmethyl]-carbamoyl}-ethyl)-carbamic acid tert-butyl ester] was 0.5 µg/mL (≈ 1.02 µM); that for `CCNC(=O)Nc1cc2c(-c3ccncc3)ccc(CNC(=O)CN)c2cn1.Cl` [Example 50, 2-amino-N-[3-(3-ethyl-ureido)-5-pyridin-4-yl-isoquinolin-8-ylmethyl]-acetamide hydrochloride] was 4 µg/mL; that for `CCNC(=O)Nc1cc2c(-c3ccncc3)ccc(CNC(=O)CCN)c2cn1.Cl` [Example 51, 3-amino-N-[3-(3-ethyl-ureido)-5-pyridin-4-yl-isoquinolin-8-ylmethyl]-propionamide hydrochloride] was 8 µg/mL.
The value for `CCNC(=O)Nc1cc2c(-c3ccncc3)ccc(CNC(=O)CC(N)=O)c2cn1` [Example 52, N-[3-(3-ethyl-ureido)-5-pyridin-4-yl-isoquinolin-8-ylmethyl]-malonamide] was 2 µg/mL (≈ 4.92 µM); that for `CCNC(=O)Nc1cc2c(-c3ccncc3)ccc(CNC(=O)CC(=O)NC)c2cn1` [Example 53, N-[3-(3-ethyl-ureido)-5-pyridin-4-yl-isoquinolin-8-ylmethyl]-N′-methyl-malonamide] was 4 µg/mL (≈ 9.51 µM); that for `CCNC(=O)Nc1cc2c(-c3ccncc3)ccc(CNC(=O)CCC(N)=O)c2cn1` [Example 54, N-[3-(3-ethyl-ureido)-5-pyridin-4-yl-isoquinolin-8-ylmethyl]-succinamide] was 4 µg/mL (≈ 9.51 µM).
Next, `CCNC(=O)Nc1cc2c(-c3ccncc3)ccc(CNC(=O)CCC(=O)NC)c2cn1` [Example 55, N-[3-(3-ethyl-ureido)-5-pyridin-4-yl-isoquinolin-8-ylmethyl]-N′-methyl-succinamide]: 8 µg/mL (≈ 18.4 µM); `CCNC(=O)Nc1cc2c(-c3ccncc3)ccc(CNC(=O)CCCNC(=O)OC(C)(C)C)c2cn1` [Example 56, (3-{[3-(3-ethyl-ureido)-5-pyridin-4-yl-isoquinolin-8-ylmethyl]-carbamoyl}-propyl)-carbamic acid tert-butyl ester]: 1 µg/mL (≈ 1.97 µM); `CCNC(=O)Nc1cc2c(-c3ccncc3)ccc(CNC(=O)CC3CC3)c2cn1` [Example 57, 2-cyclopropyl-N-[3-(3-ethyl-ureido)-5-pyridin-4-yl-isoquinolin-8-ylmethyl]-acetamide]: 0.5 µg/mL (≈ 1.24 µM).
Compound `CCNC(=O)Nc1cc2c(-c3ccncc3)ccc(CNC(=O)CCN(C)C(=O)OC(C)(C)C)c2cn1` [Example 58, (2-{[3-(3-ethyl-ureido)-5-pyridin-4-yl-isoquinolin-8-ylmethyl]-carbamoyl}-ethyl)-methyl-carbamic acid tert-butyl ester] had an MIC of 2 µg/mL (≈ 3.95 µM).
The value for `CCNC(=O)Nc1cc2c(-c3ccncc3)ccc(CNC(=O)CC)c2cn1` [Example 59, N-[3-(3-ethyl-ureido)-5-pyridin-4-yl-isoquinolin-8-ylmethyl]-propionamide] was 0.5 µg/mL (≈ 1.32 µM); that for `CCNC(=O)Nc1cc2c(-c3ccncc3)ccc(CNC(=O)Cc3c[nH]cn3)c2cn1` [Example 60, N-[3-(3-ethyl-ureido)-5-pyridin-4-yl-isoquinolin-8-ylmethyl]-2-(1H-imidazol-4-yl)-acetamide] was 8 µg/mL (≈ 18.6 µM).
Next, `CCNC(=O)Nc1cc2c(-c3ccncc3)ccc(CNC(=O)CO)c2cn1` [Example 61, N-[3-(3-ethyl-ureido)-5-pyridin-4-yl-isoquinolin-8-ylmethyl]-2-hydroxy-acetamide]: 4 µg/mL (≈ 10.5 µM); `CCNC(=O)Nc1cc2c(-c3ccncc3)ccc(CNC(=O)CCCN(C)C(=O)OC(C)(C)C)c2cn1` [Example 62, (3-{[3-(3-ethyl-ureido)-5-pyridin-4-yl-isoquinolin-8-ylmethyl]-carbamoyl}propyl)-methyl-carbamic acid tert-butyl ester]: 1 µg/mL (≈ 1.92 µM); `CCNC(=O)Nc1cc2c(-c3ccncc3)ccc(CNC(=O)CCOC)c2cn1` [Example 63, N-[3-(3-ethyl-ureido)-5-pyridin-4-yl-isoquinolin-8-ylmethyl]-3-methoxy-propionamide]: 1 µg/mL (≈ 2.45 µM).
Next, `CCNC(=O)Nc1cc2c(-c3ccncc3)ccc(CNC(C)=O)c2cn1` [Example 64, N-[3-(3-ethyl-ureido)-5-pyridin-4-yl-isoquinolin-8-ylmethyl]-acetamide]: 0.5 µg/mL (≈ 1.38 µM); `CCNC(=O)Nc1cc2c(-c3ccncc3)ccc(CNC(=O)C3CC3)c2cn1` [Example 65, cyclopropanecarboxylic acid [3-(3-ethyl-ureido)-5-pyridin-4-yl-isoquinolin-8-ylmethyl]-amide]: 0.25 µg/mL (≈ 0.642 µM).
For `CCNC(=O)Nc1cc2c(-c3ccncc3)ccc(CNC(=O)CC(C)C)c2cn1` [Example 66, N-[3-(3-ethyl-ureido)-5-pyridin-4-yl-isoquinolin-8-ylmethyl]-3-methyl-butyramide], the MIC came to 0.25 µg/mL (≈ 0.617 µM).
Next, `CCNC(=O)Nc1cc2c(-c3ccncc3)ccc(CNC(=O)C(C)C)c2cn1` [Example 67, N-[3-(3-ethyl-ureido)-5-pyridin-4-yl-isoquinolin-8-ylmethyl]-isobutyramide]: 0.5 µg/mL (≈ 1.28 µM); `CCNC(=O)Nc1cc2c(-c3ccncc3)ccc(CNC(=O)CCO)c2cn1` [Example 68, N-[3-(3-ethyl-ureido)-5-pyridin-4-yl-isoquinolin-8-ylmethyl]-3-hydroxy-propionamide]: 4 µg/mL (≈ 10.2 µM); `C#CCCC(=O)NCc1ccc(-c2ccncc2)c2cc(NC(=O)NCC)ncc12` [Example 69, pent-4-ynoic acid [3-(3-ethyl-ureido)-5-pyridin-4-yl-isoquinolin-8-ylmethyl]-amide]: 0.25 µg/mL (≈ 0.623 µM).
The value for `CCNC(=O)Nc1cc2c(-c3ccncc3)ccc(CNC(=O)Cn3cccn3)c2cn1` [Example 70, N-[3-(3-ethyl-ureido)-5-pyridin-4-yl-isoquinolin-8-ylmethyl]-2-pyrazol-1-yl-acetamide] was 0.5 µg/mL (≈ 1.16 µM).
Next, `CCNC(=O)Nc1cc2c(-c3ccncc3)ccc(CNC(=O)c3cnc[nH]3)c2cn1` [Example 71, 3H-imidazole-4-carboxylic acid [3-(3-ethyl-ureido)-5-pyridin-4-yl-isoquinolin-8-ylmethyl]-amide]: 2 µg/mL (≈ 4.81 µM); `CCNC(=O)Nc1cc2c(-c3ccncc3)ccc(CNC(=O)c3cc[nH]n3)c2cn1` [Example 72, 1H-pyrazole-3-carboxylic acid [3-(3-ethyl-ureido)-5-pyridin-4-yl-isoquinolin-8-ylmethyl]-amide]: 0.5 µg/mL (≈ 1.2 µM).
In the case of `CCNC(=O)Nc1cc2c(-c3ccncc3)ccc(CNC(=O)c3cn[nH]c3)c2cn1` [Example 73, 1H-pyrazole-4-carboxylic acid [3-(3-ethyl-ureido)-5-pyridin-4-yl-isoquinolin-8-ylmethyl]-amide], the MIC was determined as 2 µg/mL (≈ 4.81 µM).
Consider `CCNC(=O)Nc1cc2c(-c3ccncc3)ccc(CNC(=O)c3ncc[nH]3)c2cn1` [Example 74, 1H-imidazole-2-carboxylic acid [3-(3-ethyl-ureido)-5-pyridin-4-yl-isoquinolin-8-ylmethyl]-amide], for which the lowest concentration to inhibit growth (MIC) was 0.25 µg/mL (≈ 0.602 µM).
